Reference: patent publication US7495027B2, “3-aryl-4-hydroxyfuranone compounds and the human and animal health use thereof” (Wyeth, priority 2003, dated 2009)
Read-outs that look alike come from different tables or passages of the source.

Legend:
[1] = molecular target: E. coli Enopyruvyl-UPD-N-acetylglucosamine reductase, Mur B (Escherichia coli, UniProt P08373); experiment: biochemical; settings: (E) E. coli enzyme; for IC50: read-out: MurB IC50 (converted)
[2] = molecular target: T1, S. aureus Enopyruvyl-UPD-N-acetylglucosamine reductase, Mur B (Staphylococcus aureus, UniProt P61431); experiment: biochemical; settings: (S) S. aureus enzyme; for IC50: read-out: MurB IC50 (converted)
T1 sequence (P61431 1-307): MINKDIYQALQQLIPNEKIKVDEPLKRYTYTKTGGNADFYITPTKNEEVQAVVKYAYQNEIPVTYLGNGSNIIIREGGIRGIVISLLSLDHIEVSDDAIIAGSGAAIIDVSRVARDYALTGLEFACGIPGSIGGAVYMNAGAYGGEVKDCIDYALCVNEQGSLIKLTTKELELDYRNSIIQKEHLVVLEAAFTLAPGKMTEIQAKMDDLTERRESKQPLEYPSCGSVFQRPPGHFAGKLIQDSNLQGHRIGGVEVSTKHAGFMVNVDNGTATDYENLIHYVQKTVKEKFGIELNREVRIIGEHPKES

[3] = molecular target: E. coli Uridine-diphosphate-N-acetylmuramoyl-L-alanine: D-glutamate liease, MurD (Escherichia coli, UniProt P14900); experiment: biochemical; settings: (E) E. coli enzyme
Method in brief: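 Compound working solutions reach 100 μg/mL in 50 mM Tris/HCl (pH 8.5) after dilution of 10 mg/mL DMSO stocks; final level in the well not given here. Reaction buffer finals: 2 mM ATP, 50 mM MgCl2, 83 mM Tris/HCl, pH 8.0.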

[4] = molecular target: E. coli UDP-N-acetylglucosamine enolpyruvoyl transferase, MurA (Escherichia coli, UniProt P0A749); experiment: biochemical; settings: (E) E. coli enzyme
Method in brief: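 Enzyme in 50 mM Tris/HCl pH 8.0 with 5 mM DTT and 20% glycerol was pre-incubated 10 min at 37° C with test compound in DMSO/water. Tris/BME and assay buffer then started the 1 hr, 37° C reaction, with a baseline 340 nm reading taken at start. Stop solution followed, and colour developed 30 minutes.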

[5] = molecular target: E. coli Uridine-diphosphate-N-acetvimuramoyl: L-alanine lipase, MurC (Escherichia coli, UniProt P17952); experiment: Inhibitory activity against MurC (E. coli); type: biochemical
[6] = (E) E. coli enzyme, read-out: MurC IC50 (converted)

Sequence of E. coli Uridine-diphosphate-N-acetylmuramoyl-L-alanine: D-glutamate liease, MurD (P14900 whole entry): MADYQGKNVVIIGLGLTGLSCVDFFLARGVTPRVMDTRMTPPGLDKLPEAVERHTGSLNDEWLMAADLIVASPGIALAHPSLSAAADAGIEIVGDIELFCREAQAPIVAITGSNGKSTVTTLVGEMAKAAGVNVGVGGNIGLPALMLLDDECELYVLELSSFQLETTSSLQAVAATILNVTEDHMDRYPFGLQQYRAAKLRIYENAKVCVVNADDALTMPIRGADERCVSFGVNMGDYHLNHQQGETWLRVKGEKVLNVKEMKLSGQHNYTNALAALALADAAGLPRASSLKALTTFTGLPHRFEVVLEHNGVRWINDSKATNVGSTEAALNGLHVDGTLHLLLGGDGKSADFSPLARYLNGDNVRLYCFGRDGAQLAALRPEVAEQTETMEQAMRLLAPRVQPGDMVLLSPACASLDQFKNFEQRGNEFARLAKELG
Sequence of E. coli Enopyruvyl-UPD-N-acetylglucosamine reductase, Mur B (P08373 whole entry): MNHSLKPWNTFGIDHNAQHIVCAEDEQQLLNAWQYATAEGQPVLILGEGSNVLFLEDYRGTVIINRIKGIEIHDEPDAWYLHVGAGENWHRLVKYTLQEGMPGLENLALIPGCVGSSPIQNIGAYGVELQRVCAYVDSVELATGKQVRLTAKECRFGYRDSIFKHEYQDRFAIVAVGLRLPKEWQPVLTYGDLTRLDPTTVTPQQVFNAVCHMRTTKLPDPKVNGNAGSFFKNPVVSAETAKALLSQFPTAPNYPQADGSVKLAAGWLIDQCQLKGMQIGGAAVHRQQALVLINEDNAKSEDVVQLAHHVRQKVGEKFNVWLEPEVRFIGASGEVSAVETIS
Sequence of E. coli Uridine-diphosphate-N-acetvimuramoyl: L-alanine lipase, MurC (P17952 whole entry): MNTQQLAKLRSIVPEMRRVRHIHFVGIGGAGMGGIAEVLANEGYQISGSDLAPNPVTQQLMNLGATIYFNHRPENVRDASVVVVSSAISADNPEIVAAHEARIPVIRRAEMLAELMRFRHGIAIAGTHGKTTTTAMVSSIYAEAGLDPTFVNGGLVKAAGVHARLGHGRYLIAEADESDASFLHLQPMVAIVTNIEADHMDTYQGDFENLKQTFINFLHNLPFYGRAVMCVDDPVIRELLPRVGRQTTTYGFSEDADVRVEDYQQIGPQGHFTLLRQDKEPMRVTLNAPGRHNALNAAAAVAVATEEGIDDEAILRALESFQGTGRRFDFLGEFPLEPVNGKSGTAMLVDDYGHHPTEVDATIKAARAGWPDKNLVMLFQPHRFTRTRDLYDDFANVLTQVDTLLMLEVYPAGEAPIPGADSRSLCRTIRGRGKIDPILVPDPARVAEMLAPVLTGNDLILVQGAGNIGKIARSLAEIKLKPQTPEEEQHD
Sequence of E. coli UDP-N-acetylglucosamine enolpyruvoyl transferase, MurA (P0A749 whole entry): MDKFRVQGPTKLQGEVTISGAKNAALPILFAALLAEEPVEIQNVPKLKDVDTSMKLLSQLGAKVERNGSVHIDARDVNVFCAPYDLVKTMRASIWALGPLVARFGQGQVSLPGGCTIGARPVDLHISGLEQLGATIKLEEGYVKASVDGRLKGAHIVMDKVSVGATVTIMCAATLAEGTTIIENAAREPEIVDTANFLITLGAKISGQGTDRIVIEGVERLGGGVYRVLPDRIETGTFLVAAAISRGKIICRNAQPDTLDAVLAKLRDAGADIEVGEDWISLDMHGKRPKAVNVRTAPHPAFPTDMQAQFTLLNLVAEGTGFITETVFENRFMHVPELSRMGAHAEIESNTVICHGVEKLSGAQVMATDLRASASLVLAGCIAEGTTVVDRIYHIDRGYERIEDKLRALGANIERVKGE

Row | SMILES | IC50 [1] [µM] | IC50 [2] [µM] | IC50 [3] [µM] | IC50 [4] [µM] | also measured
1 | Cc1ccccc1-c1ccc(/C=C2\OC(=O)C(c3cc(Cl)cc(Cl)c3)=C2O)cc1C [Example 29] | 4.57 | 4.57 |  |  | 
2 | CN(C)c1ccc(/C=C2\OC(=O)C(c3ccc(Cl)cc3)=C2O)c2ccccc12 [Example 78] | 7.66 | 33.2 |  |  | 
3 | O=C1O/C(=C\c2ccc(C(F)(F)F)cc2)C(O)=C1c1ccc(-c2ccccc2)cc1 [R=H, R1=4-(biphenyl), R2=4-CF3—C6H4] | 14.7 |  | 29.4 | 46.5 | IC50 ([5]; MurC IC50, (E) E. coli enzyme): 12.2 µM
4 | O=C1O/C(=C\c2ccc(-c3ccccc3)cc2)C(O)=C1c1cccs1 [Example 144] | 57.7 | 28.9 |  |  | 
5 | O=C1OC(=Cc2ccc(-c3ccccc3)cc2)C(O)=C1c1cccc(C(F)(F)F)c1 (mixture of isomers) [Example 11] |  |  |  |  | MurD IC50 [3]: 21 µg/mL; MurB IC50 [1]: 6 (E) μg/mL; MurA IC50 [4]: 1 (E) μg/mL; MurC IC50 ([5]; (E) E. coli enzyme): 4 µg/mL
6 | O=C1O/C(=C\C2CCCCC2)C(O)=C1c1ccc(-c2ccccc2)cc1 [Example 100] |  |  | > 72.2 | > 72.2 | IC50 [5, 6]: 37.5 µM
7 | O=C1O/C(=C\c2ccc(-c3ccccc3)cc2)C(O)=C1c1cccc(C(F)(F)F)c1 [Example 10] | 14.7 |  | 51.4 | 2.45 | IC50 [5, 6]: 9.79 µM
8 | Cc1cc(/C=C2\OC(=O)C(c3cccc(Cl)c3)=C2O)ccc1-c1ccccc1C(F)(F)F [Example 26] | 6.57 | 4.38 |  |  | 
9 | COc1cc(/C=C2\OC(=O)C(c3cc(Cl)cc(Cl)c3)=C2O)ccc1-c1ccccc1C(F)(F)F [Example 33] | 3.94 | 3.94 |  |  | 
10 | COc1cc(/C=C2\OC(=O)C(c3cccc(Cl)c3)=C2O)ccc1-c1ccccc1Cl [Example 18] | 13.7 | 11.4 |  |  | 
11 | O=C1O/C(=C\c2ccc(-c3ccccc3)cc2)C(O)=C1c1csc2ccccc12 [Example 143] | 17.7 | 10.1 |  |  | 
12 | O=C1O/C(=C\c2ccc3ccccc3c2)C(O)=C1c1ccc(Cl)cc1 [Example 54] | 22.9 |  | > 71.7 | > 71.7 | IC50 [5, 6]: 14.3 µM
13 | O=C1O/C(=C\c2cc(C(F)(F)F)ccc2Cl)C(O)=C1c1ccc(N2CCOCC2)c(F)c1 [Example 142] |  |  |  |  | MurB IC50 [1]: 10 µg/mL; MurB IC50 [2]: 21 µg/mL
14 | O=C1O/C(=C\c2ccc(N3CCOCC3)c3ccccc23)C(O)=C1c1cccc(Cl)c1 [Example 37] |  | 23 |  |  | 
15 | COc1ccc(/C=C2\OC(=O)C(c3cc(Cl)cc(Cl)c3)=C2O)c2ccccc12 [Example 36] |  | 7.26 |  |  | 
16 | O=C1OC(=CC2CCCCC2)C(O)=C1c1cccc(C(F)(F)F)c1 [Example 16] |  |  |  |  | MurB IC50 [1]: >25 (E) μg/mL; MurA IC50 [4]: >25 (E) μg/mL; MurC IC50 ([5]; (E) E. coli enzyme): 7 µg/mL
17 | O=C1O/C(=C\C2CCCCC2)C(O)=C1c1ccc(Cl)cc1 [Example 15] | > 82 |  | > 82 | > 82 | IC50 [5, 6]: 55.8 µM
18 | O=C1O/C(=C\c2ccc3ccccc3c2)C(O)=C1c1cccc2ccccc12 [Example 56] | > 68.6 |  | > 68.6 | > 68.6 | IC50 [5, 6]: 13.7 µM
19 | O=C1O/C(=C\c2ccccc2-c2ccc(Cl)c(Cl)c2)C(O)=C1c1ccc(Cl)c(Cl)c1 [Example 141] |  | 4.18 |  |  | MurB IC50 [1]: 2 (E); 2 (S) μg/mL
20 | O=C1O/C(=C\c2ccc(-c3ccccc3)cc2)C(O)=C1c1ccc(Cl)cc1 [Example 53] | 16 |  | 13.3 | > 66.7 | IC50 [5, 6]: 13.3 µM
21 | O=C1O/C(=C\c2ccc3ccccc3c2)C(O)=C1c1ccc2ccccc2c1 [Example 52] | > 68.6 |  | 63.1 | > 68.6 | IC50 [5, 6]: 46.7 µM

Row | SMILES | IC50 [1] [µM] | IC50 [2] [µM] | IC50 [3] [µM] | IC50 [4] [µM] | also measured
22 | O=C1O/C(=C\c2ccc(-c3ccccc3)cc2)C(O)=C1c1cccc(Cl)c1 [Example 69] | 13.3 |  | 50.7 | 21.3 | 
23 | CN(C)c1ccc(/C=C2\OC(=O)C(c3cc(Cl)cc(Cl)c3)=C2O)c2ccccc12 [Example 79] | 14.1 | 2.35 |  |  | 
24 | COc1cc(/C=C2\OC(=O)C(c3cccc(Cl)c3)=C2O)ccc1-c1ccccc1C [Example 22] | 14.3 | 14.3 |  |  | 
25 | COc1cc(/C=C2\OC(=O)C(c3cc(Cl)cc(Cl)c3)=C2O)ccc1-c1ccccc1Cl [Example 21] | 10.6 | 6.33 |  |  | 
26 | COc1cc(/C=C2\OC(=O)C(c3cccc(Cl)c3)=C2O)ccc1-c1ccccc1C(F)(F)F [Example 32] | 12.7 | 6.34 |  |  | 
27 | O=C1O/C(=C\c2cccnc2)C(O)=C1c1ccc(-c2ccccc2)cc1 [Example 101] | > 73.2 |  | > 73.2 | 67.4 | IC50 [5, 6]: 52.7 µM
28 | O=C1O/C(=C\c2ccc(-c3cccc(C(F)(F)F)c3)cc2)C(O)=C1c1cccc(C(F)(F)F)c1 |  |  |  |  | MurD IC50 [3]: 24 µg/mL; MurB IC50 [1]: 4 (E) μg/mL; MurA IC50 [4]: >25 (E) μg/mL; MurC IC50 ([5]; (E) E. coli enzyme): 11 µg/mL
29 | COc1ccc(C=C2OC(=O)C(c3cccc(Cl)c3)=C2O)c2ccccc12 [Example 35] |  |  |  |  | MurB IC50 [2]: 6 (S) μg/mL
30 | O=C1O/C(=C\c2ccc(-c3cc(Cl)cc(Cl)c3)cc2)C(O)=C1c1cc(Cl)cc(Cl)c1 |  |  |  |  | MurD IC50 [3]: 6 µg/mL; MurB IC50 [1]: 3 (E) μg/mL; MurA IC50 [4]: 1 (E) μg/mL; MurC IC50 ([5]; (E) E. coli enzyme): 17 µg/mL
31 | O=C1O/C(=C\c2cccc(C(F)(F)F)c2)C(O)=C1c1ccc(-c2ccccc2)c(F)c1 [Example 106] |  |  |  | 21.1 | MurB IC50 [1]: 12 (E) μg/mL; IC50 [5, 6]: 21.1 µM
32 | O=C1O/C(=C\c2ccc(N3CCOCC3)c(F)c2)C(O)=C1c1cc(Cl)cc(Cl)c1 [Example 34] |  |  |  |  | MurB IC50 [2]: 6 (S) μg/mL
33 | O=C1O/C(=C\C2CCCCC2)C(O)=C1c1cccc(C(F)(F)F)c1 [Example 17] | > 70.9 |  |  |  | MurC IC50 ([5]; (E) E. coli enzyme): 10 µg/mL
34 | O=C1O/C(=C\C2CCCCC2)C(O)=C1c1ccc2ccccc2c1 [Example 51] | > 78 |  | > 78 | > 78 | MurC IC50 ([5]; (E) E. coli enzyme): 9 µg/mL
35 | O=C1O/C(=C\c2cccc(C(F)(F)F)c2)C(O)=C1c1ccc2ccccc2c1 [Example 42] |  |  |  |  | MurB IC50 [1]: 10 (E) μg/mL; MurA IC50 [4]: 20 (E) μg/mL; MurC IC50 ([5]; (E) E. coli enzyme): 6 µg/mL
36 | O=C1O/C(=C\c2ccc(-c3ccccc3)cc2)C(O)=C1c1cc(Cl)cc(Cl)c1 [Example 67] | 2.44 |  | 22 | 7.33 | IC50 [5, 6]: 14.7 µM
37 | O=C1O/C(=C\c2ccc(-c3ccc(Cl)cc3)cc2)C(O)=C1c1ccc(Cl)cc1 [R=H, R1=4-Cl—C6H4, R2=4-(4′-Cl-biphenyl)] | 7.33 |  | 14.7 | 14.7 | IC50 ([5]; MurC IC50, (E) E. coli enzyme): 29.3 µM
38 | Cc1ccc(/C=C2\OC(=O)C(c3ccc(-c4ccccc4)cc3)=C2O)s1 [Example 104] |  |  | > 69.4 | > 69.4 | IC50 [5, 6]: 13.9 µM
39 | O=C1O/C(=C\c2ccc(N3CCOCC3)c3ccccc23)C(O)=C1c1cc(Cl)cc(Cl)c1 [Example 38] |  | 17.1 |  |  | 
40 | Cc1ccc(C=C2OC(=O)C(c3ccc(Cl)cc3)=C2O)s1 (mixture of isomers) [Example 13] |  |  |  |  | MurD IC50 [3]: > 25 µg/mL; MurB IC50 [1]: 12 (E) μg/mL; MurA IC50 [4]: 0.5 (E) μg/mL; MurC IC50 ([5]; (E) E. coli enzyme): 4 µg/mL
41 | Cc1ccc(C=C2OC(=O)C(c3ccc(Cl)cc3)=C2O)s1 [Example 14] |  |  |  |  | MurB IC50 [1]: >25 (E) μg/mL; MurA IC50 [4]: 5 (E) μg/mL; MurC IC50 ([5]; (E) E. coli enzyme): 13 µg/mL
